Structures are written as SMILES.

For one test, the system named is β-galactosidase LacZ. In words: Activity of β-galactosidase LacZ by Miller's method. The settings on record: strain B7; +IPTG, 1 mM; middle-logarithmic phase, M9:LB (9:1) with glucose 0.4%. The test is classed as cell-based, E. coli. The method, then: For the measurement of β-galactosidase activity, the strains were grown to the middle-logarithmic phase in M9:LB (9:1, v/v) medium supplemented with glucose (0.4%, w/v). The medium for the strains having ilvAYC deletion and AHAS-deficient strains was additionally supplemented with Ile (25 mg/1) and Val (25 mg/1). Activity of β-galactosidase was measured according to Miller's method (Miller J. H. (1972) Experiments in molecular genetics. Cold Spring Harbor Laboratory, Cold Spring Harbor). The data presented in Table 2 indicate that expression level of the reporter lacZ gene under PilvC promoter varies within the range of more than two orders of magnitude depending on the genetic background. The maximal expression level was provided by the E. coli strains modified to overexpress L-valine resistant AHAS I (the product of the ilvBN4 genes) or/and containing inactivated the isomeroreductase IlvC encoding gene (ilvC).

The next test deals with T1, AHAS I (Escherichia coli, UniProt P08142+P0ADF8, N17K).
T1 construct: expressed in transfected cells; host or cells: E. coli K12 B7 (VKPM B-7) ΔilvGM ΔilvIH with a chromosomal ilvBN4 operon under PilvC (or PL); crude cell extracts
The test can be described thus: Activity of AHAS I in crude cell extracts with or without addition of 10 mM L-Val. The test is classed as biochemical, E. coli. The method, then:
Cells were grown to the middle-logarithmic phase in M9:LB (9:1, v/v) medium supplemented with glucose (0.4%, w/v). Activity of AHAS I in crude cells extracts was measured with or without addition of 10 mM L-Val according to the assay described in Stormer F. and Umbarger H., Biochem. Biophys. Res. Commun., 1964, 17(5):587-592.

T1 sequence (P08142 whole entry): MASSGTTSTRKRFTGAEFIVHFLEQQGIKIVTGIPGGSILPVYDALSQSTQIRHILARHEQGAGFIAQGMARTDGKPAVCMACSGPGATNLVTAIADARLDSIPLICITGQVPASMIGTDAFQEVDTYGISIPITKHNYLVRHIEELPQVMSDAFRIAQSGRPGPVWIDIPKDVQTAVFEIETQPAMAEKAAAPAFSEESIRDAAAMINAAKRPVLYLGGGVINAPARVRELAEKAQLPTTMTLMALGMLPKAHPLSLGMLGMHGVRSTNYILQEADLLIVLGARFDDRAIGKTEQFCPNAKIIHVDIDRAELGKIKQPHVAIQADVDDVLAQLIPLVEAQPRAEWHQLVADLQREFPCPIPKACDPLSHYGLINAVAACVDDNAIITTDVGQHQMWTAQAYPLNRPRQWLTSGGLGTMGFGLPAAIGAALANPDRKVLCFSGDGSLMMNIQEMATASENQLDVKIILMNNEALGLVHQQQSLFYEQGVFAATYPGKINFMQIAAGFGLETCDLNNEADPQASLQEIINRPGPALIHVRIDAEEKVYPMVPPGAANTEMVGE
T1 sequence (P0ADF8 whole entry N17K): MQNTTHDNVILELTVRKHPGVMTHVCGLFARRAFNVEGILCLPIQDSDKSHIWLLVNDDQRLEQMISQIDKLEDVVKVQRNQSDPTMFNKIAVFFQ

As for `CC(C)S[C@@H]1O[C@H](CO)[C@H](O)[C@H](O)[C@H]1O` [IPTG], the “Specific activity of β-galactosidase” value with β-galactosidase LacZ amounted to 1200 Miller's units.
Take `CC(C)[C@H](N)C(=O)O` [L-Val, L-valine]: the figures for the “AHAS I activity with L-Val, 10 mM (percent of value, measured without L-Val addition)” value on AHAS I (crude extract of strain B7 ΔilvGM ΔilvIH PL-ilvBN4 (control)), at AHAS I (crude extract of strain B7 ΔilvGM ΔilvIH cat-ilvY-PilvC-ilvBN4 cl.1) and on AHAS I (crude extract of strain B7 ΔilvGM ΔilvIH cat-ilvY-PilvC-ilvBN4 cl.4) were 86%, 88% and 88%, respectively. The “AHAS I activity with L-Val, 10 mM” value came out at 51 nmol/min/mg at AHAS I (crude extract of strain B7 ΔilvGM ΔilvIH PL-ilvBN4 (control), mean of triplicate); 80 nmol/min/mg at AHAS I (crude extract of strain B7 ΔilvGM ΔilvIH cat-ilvY-PilvC-ilvBN4 cl.1, mean of triplicate); 106 nmol/min/mg at AHAS I (crude extract of strain B7 ΔilvGM ΔilvIH cat-ilvY-PilvC-ilvBN4 cl.4, mean of triplicate).
